Experimental data published in patent US7728128B2, “Dibenzo[c,h][1,5]naphthyridines and their use as DNA probes” (Institut National de la Sante et de la Recherche Medicate …, priority 2006, dated 2010).

System: CT DNA
Assay: viscometry (hydrodynamic studies) of CT DNA solutions
Type: binding, calf
Conditions: CT DNA 0.5 mM, drug 0.1 mM (0.2 dye/bp ratio)
Procedure: Calf thymus (CT) DNA was dissolved in 50 mM Na-phosphate buffer, pH 7.2, to a concentration of 0.1 or 0.5 mM relative to base pairs as described in the legend for FIGS. 3A and B. DNA solution was allowed to run through a custom-made capillary viscometer and the time necessary for the meniscus to pass a certain distance was measured using a stopwatch. All experiments were performed at 23° C. Viscosity values were calculated using the equation: η=(t−t0)/t0, where t is the flow time of DNA solution (with or without dye), and t0 is the flow time of Na-phosphate buffer alone. For each control and DNA solutions with dyes flow times were measured three to five times. Viscosity of DNA solutions with dyes were calculated as (η/η0)^1/3, where η0 and η are relative viscosities of the CT DNA solution in the absence and presence of the dye, respectively. This calculation stems from the relationship which exists between the relative solution viscosity and the relative contour length (L/L0): L/L0=(η/η0)^1/3, where L stands for the apparent molecular length (Muller, W. et al., 1968, J Mol Biol, 35, 251-290). Average viscosity values and standard error of the mean (SEM) were determined using (η/η0)^1/3 values calculated for each time flow measurement.
DNA-binding dyes interact with dsDNA by intercalation or external binding, or both. External binding most often involves the minor groove of DNA (Kopka et al.; Pjura, P. E., et al., 1987, J Mol Biol, 197, 257-271). Intercalation occurs when a ligand inserts itself between the opposite strands of DNA. In order to determine the mechanism of compound I binding to dsDNA, the inventors performed hydrodynamic studies. This approach is based on the observation that intercalating molecules increase the length of DNA fragments and, consequently, enhance the viscosity of DNA solutions (Muller W. et al.; Suh, D. et al., 1995, Bioorg Med Chem, 3, 723-728). For this experiment, compound I has been compared to the known DNA intercalator ethidium bromide and to the external minor groove binder Hoechst 33258. CT DNA at 0.5 mM was mixed with drugs at 0.1 mM concentration (0.2 dye/bp ratio) and used for viscometry measurements.
The inventors then wondered whether the increase in viscosity is equally matched by the increase in fluorescence intensity. To answer this question, CT DNA at 0.1 mM (bp) was mixed with increasing amounts of compound I and viscosity measurements were performed as above. The viscosity of the DNA/compound I solutions increased up to a dye/bp ratio 1 (FIG. 3B). To correlate the increase in viscosity with fluorescence, the inventors measured fluorescence intensities at 484 nm of the compound I/DNA solutions used for the viscosity measurements.

CN1CCN(c2ccc3[nH]c(-c4ccc5[nH]c(-c6ccc(O)cc6)nc5c4)nc3c2)CC1 [Hoechst 33258, reference compound]
effect on viscosity of DNA solution: decrease slightly
